Results: the supplement of paper PMC10307832

Legend:
Experiment in all cases: relative viability (nuclei count vs DMSO), 5 days (fraction); higher = more cells survive
[1] = compound: C1=CC2=NC=CN=C2C=C1/C=C/3\C(=O)NC(=O)S3 + CC1(C)CCC(c2ccc(Cl)cc2)=C(CN2CCN(c3ccc(C(=O)NS(=O)(=O)c4ccc(N[C@H](CCN5CCOCC5)CSc5ccccc5)c(S(=O)(=O)C(F)(F)F)c4)cc3)CC2)C1 [Navitoclax] (partner 0.5 µM)
Outline: (§1)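 Medians of duplicate plates are given as relative viability. That measure is the nuclei count in treated wells divided by the count in vehicle wells. Counts were taken on 4× images of lung cancer cell lines in 1536-well plates, 5 days after pin-tool dosing the day after seeding with one drug alone or a fixed anchor-drug dose plus five library-drug doses (not always all listed) in √10 steps.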

[2] = compound: C1=CC2=NC=CN=C2C=C1/C=C/3\C(=O)NC(=O)S3 + CS(=O)(=O)CCNCc1ccc(-c2ccc3ncnc(Nc4ccc(OCc5cccc(F)c5)c(Cl)c4)c3c2)o1 [Lapatinib] (partner 2 µM)
Outline: as §1

[3] = compound: CCN1CCN(c2ccc(Nc3cc(N(C)C(=O)Nc4c(Cl)c(OC)cc(OC)c4Cl)ncn3)cc2)CC1 [BGJ398] + CCNC(=O)c1noc(-c2cc(C(C)C)c(O)cc2O)c1-c1ccc(CN2CCOCC2)cc1 [Luminespib] (partner 0.01 µM)
Outline: as §1

[4] = compound: CCN1CCN(c2ccc(Nc3cc(N(C)C(=O)Nc4c(Cl)c(OC)cc(OC)c4Cl)ncn3)cc2)CC1 [BGJ398] + Cc1nc(Nc2ncc(C(=O)Nc3c(C)cccc3Cl)s2)cc(N2CCN(CCO)CC2)n1 [Dasatinib] (partner 0.075 µM)
Outline: as §1

| Cell Line | relative viability ([1]; first compound 0.02 µM) | relative viability ([1]; first compound 0.06325 µM) | relative viability ([1]; first compound 0.2 µM) | relative viability ([1]; first compound 0.6325 µM) | relative viability ([1]; first compound 2 µM) | relative viability ([2]; first compound 0.02 µM) | relative viability ([2]; first compound 0.06325 µM) | relative viability ([2]; first compound 0.2 µM) | relative viability ([2]; first compound 0.6325 µM) | relative viability ([2]; first compound 2 µM) | relative viability ([3]; first compound 0.01 µM) | relative viability ([3]; first compound 0.1 µM) | relative viability ([3]; first compound 0.3162 µM) | relative viability ([3]; first compound 1 µM) | relative viability ([4]; first compound 0.01 µM) | relative viability ([4]; first compound 0.1 µM) | relative viability ([4]; first compound 0.3162 µM) | relative viability ([4]; first compound 1 µM) | relative viability ([3]; first compound 0.03162 µM) | relative viability ([4]; first compound 0.03162 µM) |
| --- | --- | --- | --- | --- | --- | --- | --- | --- | --- | --- | --- | --- | --- | --- | --- | --- | --- | --- | --- | --- |
| PC-3 [JPC-3] | 0.744 | 0.765 | 0.783 | 0.749 | 0.766 | 0.481 | 0.559 | 0.454 | 0.439 | 0.441 | 0.63 | 0.737 | 0.721 | 0.712 | 0.949 | 1.02 | 0.854 | 1.01 | – | – |
| NCI-H2228 | 1.15 | 0.868 | 1.44 | 0.671 | 0.607 | 0.946 | 1.15 | 0.97 | 0.903 | 0.932 | 0.111 | 0.152 | 0.139 | 0.128 | 0.471 | 0.516 | 0.567 | 0.423 | 0.141 | 0.498 |
| HOP-62 | 0.974 | 1.15 | 1.13 | 1.06 | 0.931 | 1.04 | 0.796 | 0.944 | 1.05 | 0.958 | 0.89 | 1.03 | 0.868 | 0.897 | 0.745 | 0.678 | 0.733 | 0.57 | 0.919 | 0.656 |
| HARA | 1.1 | 1.11 | 1.17 | 1.16 | 1.09 | 0.668 | 0.984 | 0.997 | 0.633 | 0.31 | 0.652 | 0.682 | 0.374 | 0.679 | 0.26 | 0.227 | 0.232 | 0.151 | 0.862 | 0.196 |
| NCI-H838 | 1.1 | 1.32 | 1.13 | 1.02 | 1.11 | 1.06 | 1.09 | 0.969 | 0.827 | 0.707 | 0.299 | 0.272 | 0.253 | 0.234 | 0.278 | 0.28 | 0.257 | 0.225 | 0.302 | 0.337 |
| NCI-H1755 | 0.881 | 0.947 | 1.03 | 0.975 | 0.936 | 0.926 | 0.951 | 1.04 | 0.988 | 0.928 | 0.498 | 0.339 | 0.606 | 0.417 | 0.406 | 0.45 | 0.411 | 0.313 | 0.363 | 0.464 |
| NCI-H322M | 1.05 | 1.12 | 1.35 | 1.11 | 1.16 | 0.428 | 0.573 | 0.61 | 0.656 | 0.368 | 0.887 | 0.848 | 0.788 | 0.85 | 0.268 | 0.227 | 0.262 | 0.236 | 0.744 | 0.227 |
| NCI-H3122 | 1.06 | 0.997 | 0.973 | 1.01 | 1.08 | 1.09 | 1.03 | 1.04 | 0.988 | 0.972 | 0.0895 | 0.0991 | 0.0908 | 0.0986 | 0.761 | 0.923 | 0.785 | 0.991 | 0.0973 | 0.833 |
